Data reported in PMC4154654 (PLoS Neglected Tropical Diseases, 2014).
Several values for one entry are separate records, joined by “and”; a condition that tells them apart may be missing. Identical values can stand only once.

Key:
CFTR Cl− channel [1] = biological target: T1, CFTR Cl− channel (Homo sapiens, UniProt P13569); experiment: Apical Cl− current analysis of CFTR Cl− channel activity in basolaterally permeabilized T84 cells; assay type: cell-based
[2] = system: cholera toxin (CT)-induced intestinal fluid secretion; conditions: mouse, in vivo; cited from earlier work
[3] = system: live V. cholerae-induced intestinal fluid secretion; conditions: mice; ref [17], [38]; cited from earlier work
T84 cell monolayers = experiment: Barrier function assay (FITC-dextran flux) in T84 cell monolayers; conditions: 24-h treatment, 3 mM
[4] = biological target: T2, Na+-K+-Cl− cotransporter (NKCC1) (Homo sapiens, UniProt P55011); experiment: Thallium (Tl+) influx-based fluorescent assay of NKCC1 activity in T84 cells; assay type: cell-based
T2 sequence (P55011 1-1212): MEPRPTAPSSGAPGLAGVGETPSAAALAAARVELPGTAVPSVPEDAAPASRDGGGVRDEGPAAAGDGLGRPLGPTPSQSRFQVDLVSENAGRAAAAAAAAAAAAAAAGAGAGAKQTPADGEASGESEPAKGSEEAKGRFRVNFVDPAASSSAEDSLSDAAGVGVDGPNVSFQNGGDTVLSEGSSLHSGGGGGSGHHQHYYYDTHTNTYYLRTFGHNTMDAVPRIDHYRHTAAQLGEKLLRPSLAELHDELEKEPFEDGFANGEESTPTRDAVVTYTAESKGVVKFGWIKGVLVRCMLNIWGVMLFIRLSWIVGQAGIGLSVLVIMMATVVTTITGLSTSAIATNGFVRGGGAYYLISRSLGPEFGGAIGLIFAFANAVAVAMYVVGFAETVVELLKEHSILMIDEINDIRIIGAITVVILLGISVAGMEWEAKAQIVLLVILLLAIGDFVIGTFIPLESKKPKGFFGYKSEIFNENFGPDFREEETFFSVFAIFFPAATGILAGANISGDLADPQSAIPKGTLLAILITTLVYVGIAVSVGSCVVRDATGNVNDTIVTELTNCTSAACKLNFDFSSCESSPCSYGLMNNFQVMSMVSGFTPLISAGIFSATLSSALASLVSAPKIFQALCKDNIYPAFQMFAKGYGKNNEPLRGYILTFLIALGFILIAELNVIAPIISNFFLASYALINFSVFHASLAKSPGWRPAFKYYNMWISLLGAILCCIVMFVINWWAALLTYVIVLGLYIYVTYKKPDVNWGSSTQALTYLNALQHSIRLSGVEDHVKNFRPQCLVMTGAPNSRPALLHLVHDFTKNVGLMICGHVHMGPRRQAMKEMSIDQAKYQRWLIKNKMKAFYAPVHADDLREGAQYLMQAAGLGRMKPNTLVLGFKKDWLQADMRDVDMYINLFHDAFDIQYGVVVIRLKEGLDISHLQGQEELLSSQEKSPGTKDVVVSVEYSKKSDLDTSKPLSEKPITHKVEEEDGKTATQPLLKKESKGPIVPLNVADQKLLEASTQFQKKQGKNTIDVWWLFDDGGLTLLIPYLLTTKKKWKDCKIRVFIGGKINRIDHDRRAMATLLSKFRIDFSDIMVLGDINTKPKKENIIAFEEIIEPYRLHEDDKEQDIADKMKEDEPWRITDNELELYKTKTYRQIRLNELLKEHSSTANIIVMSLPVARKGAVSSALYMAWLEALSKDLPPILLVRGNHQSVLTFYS

[5] = biological target: cAMP-activated basolateral K+ channels (KCNQ1/KCNE3) (Homo sapiens, UniProt P51787); conditions: T84 cells, 30 µM
Sequence of cAMP-activated basolateral K+ channels (KCNQ1/KCNE3) (Q9Y6H6 whole entry): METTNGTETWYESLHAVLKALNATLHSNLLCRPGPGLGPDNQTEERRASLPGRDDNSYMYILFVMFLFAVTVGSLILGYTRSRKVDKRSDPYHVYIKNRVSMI
Sequence of cAMP-activated basolateral K+ channels (KCNQ1/KCNE3) (P51787 whole entry): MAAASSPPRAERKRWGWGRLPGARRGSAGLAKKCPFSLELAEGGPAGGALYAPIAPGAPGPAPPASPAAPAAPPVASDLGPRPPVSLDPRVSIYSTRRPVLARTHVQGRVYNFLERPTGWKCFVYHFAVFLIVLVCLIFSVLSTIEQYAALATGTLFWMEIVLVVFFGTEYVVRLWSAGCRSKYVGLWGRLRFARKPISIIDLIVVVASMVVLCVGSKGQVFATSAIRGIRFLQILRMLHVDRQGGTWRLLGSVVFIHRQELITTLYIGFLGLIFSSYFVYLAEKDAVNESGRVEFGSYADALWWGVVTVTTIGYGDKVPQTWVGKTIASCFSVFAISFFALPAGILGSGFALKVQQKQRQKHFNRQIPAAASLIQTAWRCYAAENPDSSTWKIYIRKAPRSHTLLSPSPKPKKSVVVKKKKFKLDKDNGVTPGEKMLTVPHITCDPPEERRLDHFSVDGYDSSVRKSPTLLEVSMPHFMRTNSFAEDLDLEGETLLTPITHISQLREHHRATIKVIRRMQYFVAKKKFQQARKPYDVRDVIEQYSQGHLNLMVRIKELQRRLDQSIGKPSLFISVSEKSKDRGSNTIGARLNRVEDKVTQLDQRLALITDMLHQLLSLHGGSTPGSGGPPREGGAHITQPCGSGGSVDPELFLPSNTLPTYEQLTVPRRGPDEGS

CFTR Cl− channel [6] = biological target: T1, CFTR Cl− channel; experiment: Apical Cl− current analysis of CFTR Cl− channel activity in Calu-3 cells; assay type: cell-based; conditions: CPT-cAMP
[7] = system: intracellular cAMP levels in T84 cells; experiment: Intracellular cAMP measurement (cAMP immunoassay) in T84 cells; assay type: cell-based, human; conditions: 200 µM, 1 h, basal and forskolin-stimulated (20 µM) conditions
Description: Intracellular cAMP levels in T84 cells were measured using cAMP immunoassays (R&D Systems, Minneapolis, Minnesota, USA). T84 cells were seeded on 24-well plates at a density of 10^6 cells/well and grown for 24 h in a humidified 5% CO2/[…] incubator at 37°C. […] Thereafter, cells were lysed with cell lysis buffer and level of intracellular cAMP was measured according to the manufacturer's instructions.
Data are expressed as means ± S.E.M. NS, non-statistical difference (n = 3).

Na+-K+ ATPase = Na+-K+ ATPase activity (ouabain-sensitive short-circuit current) in T84 cells; assay type: cell-based, human; conditions: pretreatment 200 µM
Description: After stabilization of the amphotericin B-induced rise in Isc, ouabain (1 mM) was added into the basolateral solution and the values of ouabain-sensitive current were used to represent the activity of Na^+-K^+ ATPases.
In this method, apical membrane was permeabilized by amphotericin B (250 µg/ml) and a K^+ gradient ([K^+]apical>[K^+]basolateral) was established using asymmetrical K^+ buffers in the presence of ouabain in basolateral solutions (to prevent current generated by Na^+-K^+ ATPases) (Fig. 5A, inset). The basolateral K^+ current elicited by an addition of cell-permeable cAMP (e.g. CPT-cAMP) would, therefore, reflect the activity of cAMP-activated K^+ channels located in the basolateral membrane of T84 cells (i.e. KCNQ1/KCNE3 K^+ channels). […] In this protocol, intracellular Na^+ loading by amphotericin B-induced permeabilization of apical membrane stimulated Na^+-K^+ ATPase activity, resulting in an increase in Isc (Fig. 5B, inset). […]
Na^+-K^+ ATPase activity was estimated from values of ouabain-sensitive short-circuit current, which was induced by intracellular Na^+ loading following amphotericin B (250 µg/ml)-induced apical membrane permeabilization. […] Summary of data is expressed as means of ouabain-sensitive short-circuit current ± S.E.M. (n = 6–8).

[8] = system: phosphorylated Ca2+/calmodulin-dependent protein kinase II (CaMKII); experiment: Immunoblot analysis of ATP-induced CaMKII phosphorylation in T84 cells; assay type: cell-based, human; conditions: 20 min, ATP 100 µM plus diclofenac 20 µM
Description: Proteins were extracted using lysis buffers containing (pH 7.4) 1% Triton X-100, 50 mM Tris-HCl, 150 mM NaCl, 1 mM EDTA, 1 mM NaF, 1 mM Na3VO4, 1 mM PMSF and protease inhibitor (PI) cocktail. Protein concentration was determined using a Lowry method. Equal amounts of proteins were loaded on sodium dodecyl sulfate polyacrylamide gel electrophoresis and transferred to a nitrocellulose membrane. […] The secondary antibodies were horseradish peroxidase-conjugated anti-rabbit IgG antibodies. The immunoblot was visualized using a chemiluminescence detection method.

[9] = biological target: Ca2+-activated basolateral K+ channels (KCa3.1) (Homo sapiens, UniProt O15554); experiment: Basolateral K+ current analysis of ATP-stimulated Ca2+-activated basolateral K+ channels in T84 cells; assay type: cell-based; conditions: BaCl2 5 mM, ATP 100 µM
Sequence of Ca2+-activated basolateral K+ channels (KCa3.1) (O15554 whole entry): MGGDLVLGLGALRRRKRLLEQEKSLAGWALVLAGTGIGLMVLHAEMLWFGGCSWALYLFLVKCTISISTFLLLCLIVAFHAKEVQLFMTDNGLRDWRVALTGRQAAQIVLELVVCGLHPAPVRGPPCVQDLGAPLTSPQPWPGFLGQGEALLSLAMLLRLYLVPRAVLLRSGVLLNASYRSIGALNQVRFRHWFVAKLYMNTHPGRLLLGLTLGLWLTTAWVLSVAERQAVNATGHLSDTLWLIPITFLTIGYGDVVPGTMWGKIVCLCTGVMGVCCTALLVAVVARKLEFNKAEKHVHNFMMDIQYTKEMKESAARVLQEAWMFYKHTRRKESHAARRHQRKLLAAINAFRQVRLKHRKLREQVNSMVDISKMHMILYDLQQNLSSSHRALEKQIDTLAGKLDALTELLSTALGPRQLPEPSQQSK
Description: High K^+ apical solution contained (pH 7.3) 142.5 mM K-gluconate, 1.25 mM CaCl2, 0.40 mM MgSO4, 0.43 mM […], 0.35 mM Na2HPO4, 10 mM Na-HEPES and 5.6 mM glucose. In low K^+ basolateral solution, concentration of K-gluconate was reduced to 5.4 mM and 136.9 mM N-methyl-glucamine was added. Before basolateral K^+ current measurements, apical membrane of T84 cells was permeabilized by amphotericin B (250 µg/ml) and ouabain (1 mM) was added into basolateral solution to prevent current contributed by Na^+-K^+ ATPase.

[10] = system: cholera toxin (CT)-induced Cl− secretion in T84 cells; experiment: cells; assay type: cell-based; conditions: Homo sapiens
[11] = system: forskolin-induced Cl− secretion in mouse intestinal sheets
[12] = system: CT-induced intestinal fluid secretion; experiment: Mouse closed-loop model of cholera induced by CT; assay type: in vivo; conditions: mice, 30 mg/kg intraperitoneal, CT 1 µg/loop, 4 h, loop weight/length ratio
[13] = system: V. cholerae-induced intestinal fluid secretion; experiment: Mouse closed-loop model of cholera induced by V. cholerae; assay type: in vivo; conditions: mice, 30 mg/kg intraperitoneal, 10^7 CFU/loop, 12 h, loop weight/length ratio
T84 cells = experiment: MTT assay of T84 cell viability; conditions: 24-h exposure, 10 µM to 200 µM
[14] = system: Ca2+-activated Cl− channel (CaCC); experiment: Apical Cl− current analysis of ATP-stimulated CaCC in T84 cells
[15] = system: inwardly rectifying Cl− channel (IRC); experiment: Apical Cl− current analysis of forskolin-stimulated IRC in T84 cells

T1 sequence (P13569 whole entry): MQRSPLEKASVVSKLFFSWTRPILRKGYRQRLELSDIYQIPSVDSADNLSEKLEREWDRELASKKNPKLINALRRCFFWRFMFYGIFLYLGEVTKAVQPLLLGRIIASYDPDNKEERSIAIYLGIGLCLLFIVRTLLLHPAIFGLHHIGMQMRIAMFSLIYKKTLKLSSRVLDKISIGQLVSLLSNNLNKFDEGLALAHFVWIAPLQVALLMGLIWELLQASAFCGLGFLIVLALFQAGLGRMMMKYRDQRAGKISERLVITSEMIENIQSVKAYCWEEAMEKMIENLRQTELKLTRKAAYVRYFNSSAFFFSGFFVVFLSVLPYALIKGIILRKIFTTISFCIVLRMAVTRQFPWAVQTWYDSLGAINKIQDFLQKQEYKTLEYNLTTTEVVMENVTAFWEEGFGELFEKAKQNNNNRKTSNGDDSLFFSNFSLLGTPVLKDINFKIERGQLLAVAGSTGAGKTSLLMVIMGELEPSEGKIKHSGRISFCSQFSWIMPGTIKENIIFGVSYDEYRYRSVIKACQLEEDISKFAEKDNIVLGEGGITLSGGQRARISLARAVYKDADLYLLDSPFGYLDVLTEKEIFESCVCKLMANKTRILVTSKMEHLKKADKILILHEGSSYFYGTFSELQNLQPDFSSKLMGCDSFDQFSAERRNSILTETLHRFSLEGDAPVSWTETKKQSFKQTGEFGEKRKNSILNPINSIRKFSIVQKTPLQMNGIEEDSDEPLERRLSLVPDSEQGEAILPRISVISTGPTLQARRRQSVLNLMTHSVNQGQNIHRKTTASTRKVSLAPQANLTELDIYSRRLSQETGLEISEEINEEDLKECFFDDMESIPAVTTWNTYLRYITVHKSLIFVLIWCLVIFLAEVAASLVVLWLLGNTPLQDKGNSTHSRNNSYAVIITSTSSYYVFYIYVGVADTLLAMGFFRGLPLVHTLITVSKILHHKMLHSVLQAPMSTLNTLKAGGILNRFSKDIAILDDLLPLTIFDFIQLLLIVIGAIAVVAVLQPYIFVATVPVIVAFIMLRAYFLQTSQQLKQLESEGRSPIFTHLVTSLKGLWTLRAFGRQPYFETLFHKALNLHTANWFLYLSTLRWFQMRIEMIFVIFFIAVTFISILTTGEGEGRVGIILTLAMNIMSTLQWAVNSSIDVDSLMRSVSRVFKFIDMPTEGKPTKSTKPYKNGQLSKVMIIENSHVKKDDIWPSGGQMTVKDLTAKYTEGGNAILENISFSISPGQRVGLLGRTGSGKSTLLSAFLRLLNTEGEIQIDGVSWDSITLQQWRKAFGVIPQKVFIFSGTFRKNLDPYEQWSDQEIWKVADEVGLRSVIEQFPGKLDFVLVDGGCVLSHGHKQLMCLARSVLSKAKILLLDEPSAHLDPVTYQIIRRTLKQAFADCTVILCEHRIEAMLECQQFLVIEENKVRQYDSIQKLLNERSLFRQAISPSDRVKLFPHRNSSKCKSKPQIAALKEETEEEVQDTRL

O=C(O)c1ccc(/C=C2\SC(=S)N(c3cccc(C(F)(F)F)c3)C2=O)cc1 [CFTRinh-172]
effect on recovered apical Cl− current after washout (CFTR Cl− channel [1]; forskolin, CFTRinh-172 5 µM apical): inhibited | reduction of cholera toxin (CT)-induced intestinal fluid secretion [2]: > 90% | reduction of live V. cholerae-induced intestinal fluid secretion [3]: > 90%

O=C(O)CN(CCOCCOCCN(CC(=O)O)CC(=O)O)CC(=O)O [EGTA]
effect on FITC-dextran flux, positive control (T84 cell monolayers): markedly increased

CCCCNc1cc(C(=O)O)cc(S(N)(=O)=O)c1Oc1ccccc1 [bumetanide]
effect on Tl+ influx (NKCC1 activity), positive control ([4]; 100 µM): completely prevented

Clc1ccccc1C(c1ccccc1)(c1ccccc1)n1ccnc1 [clotrimazole]
effect on CPT-cAMP-induced basolateral K+ current [5]: markedly inhibited

O=C(O)Cc1ccccc1Nc1c(Cl)cccc1Cl [diclofenac]
reversibility of inhibition of CFTR-mediated apical Cl− current (CFTR Cl− channel [1]; 20 µM, after removal from bathing solutions): reversible | IC50 (CFTR Cl− channel [1]; CPT-cAMP 100 µM, read-out: IC50, inhibition of apical Cl− current induced by CPT-cAMP): 8.5 µM | potency of inhibition of forskolin-induced Cl− current in the presence of IBMX (CFTR Cl− channel [1]; IBMX (PDE inhibitor) vs forskolin control): not different from that of control | potency of inhibition of apical Cl− current after pretreatment with MK571, compound C or Na2VO3 (CFTR Cl− channel [1]; MRP4, AMPK or protein phosphatase inhibitor): did not alter the potency | IC50 (CFTR Cl− channel [1]; apical Cl− current, regardless of the mechanisms of CFTR activation, read-out: IC50, inhibition of CFTR Cl− channel activity (summary)): ~10 µM and 8 to 10 µM | IC50 (CFTR Cl− channel [1]; forskolin 20 µM, read-out: IC50, inhibition of apical Cl− current induced by forskolin): 8 µM | inhibition of CFTR-mediated apical Cl− current at 100 µM (CFTR Cl− channel [1]; forskolin, CPT-cAMP or genistein, 100 µM): almost complete inhibition | IC50 (CFTR Cl− channel [1]; genistein 20 µM, read-out: IC50, inhibition of apical Cl− current induced by genistein): 10 µM | inhibition of CFTR-mediated apical Cl− current at 100 µM (CFTR Cl− channel [6]): near complete inhibition | IC50 (CFTR Cl− channel [6]; 100 µM, read-out: IC50, inhibition of CFTR-mediated apical Cl− current induced by CPT-cAMP): ~10 µM | effect on intracellular cAMP levels [7]: virtually no effect | effect on ouabain-sensitive Isc (Na+-K+ ATPase activity) (Na+-K+ ATPase): no effect | effect on Tl+ influx (NKCC1 activity) ([4]; pretreatment 200 µM): no effect | effect on ATP-induced CaMKII phosphorylation [8]: unaffected | inhibition of basolateral K+ current induced by ATP at 200 µM [9]: near complete inhibition | IC50 ([10]; T84, read-out: IC50, inhibition of cholera toxin (CT)-induced Cl− secretion): ~10 µM | inhibition at 100 µM ([10]; T84, read-out: inhibition of CT-induced Cl− secretion at 100 µM): > 95% | effect on forskolin-induced Cl− secretion in mouse intestinal sheets [11]: inhibited | inhibition of CT-induced intestinal fluid secretion [12]: ~70% | inhibition of V. cholerae-induced intestinal fluid secretion [13]: ~70% | effect on T84 cell viability (MTT) (T84 cells): did not affect | inhibition of CaCC-mediated apical Cl− current at 20 µM ([14]; 20 µM): almost complete inhibition | IC50 ([14]; read-out: IC50, inhibition of CaCC-mediated apical Cl− current, CFTRinh-172 pretreatment, ATP 100 µM): ~1 µM | inhibition of IRC-mediated apical Cl− current at 100 µM ([15]; 100 µM): near complete inhibition | IC50 ([15]; read-out: IC50, inhibition of IRC-mediated apical Cl− current, CFTRinh-172 pretreatment, forskolin 20 µM): ~5 µM
